Data taken from patent US20230348475A1, “IMIDAZOPYRIDAZINE AND IMIDAZOPYRAZINE COMPOUNDS AS INHIBITORS OF CDK7” (THE TRANSLATIONAL GENOMICS RESEARCH INSTITUTE, priority 2020, published 2023).
Counter-ions that a name gives are not always drawn. Like-named read-outs stand apart in the source and are kept apart here.

Assays:
[1] = molecular target: CDK7/CycH/MAT1 (Homo sapiens, UniProt P50613); experiment: Kinase Glo (ADP-Glo) biochemical assay, CDK7; conditions: CDK7/CycH/MAT1 40 ng, ATP 1 μM, 60 minutes at RT, luminescence
How it was run: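 Enzyme (40 ng), RB-CTF peptide substrate (200 ng or 400 ng) and 1 μM ATP reacted in HEPES pH 7.5 buffer with MgCl2, MnCl2, DTT and Na3VO4 for 60 min at RT. Ten-point compound dilutions were tested from 30 μM final. ADP formed was read by ADP-Glo luminescence.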

[2] = test system: MiaPaCa2 pancreatic cancer cell line; experiment: Cell viability assay (Cell Titer Glo), MiaPaCa2; assay type: cell-based; conditions: Homo sapiens, MIA PaCa-2, 72 hour incubation
Description: (§1) Materials: • Cell Lines (Treated according to ATCC guidelines) • Cell Titer Glo (Promega Cat #G7572) • DMSO • 96-well White Tissue Culture Treated Plates (Perkin Elmer Cat #60005680)
(§2) Cells were seeded in a white 96-well tissue culture treated plate at a density of 1500 cells in 90 μL of media per well and allowed to settle overnight. A ten point serial dilution of drugs was prepared at 10×concentration in media with the final assay concentrations starting at 30 μM, 10 μM, 3 μM, 1 μM, 0.3 μM . . . 0 μM. A dilution of DMSO was included as a control. The assay was set up by adding 10 μL of the corresponding drug to each well in duplicate, followed by a 72 hour incubation at 37° C., 5% CO2. Cell viability was quantified by adding 90 μL of Cell Titer Glo to each well and incubating at room temperature for 10 minutes. The reaction was quantified by measuring luminescence using the Envision Plate Reader. Data was analyzed using Graphpad Prism 7 software.

[3] = test system: HPAC pancreatic cancer cell line; experiment: Cell viability assay (Cell Titer Glo), HPAC; assay type: cell-based; conditions: Homo sapiens, HPAC, 72 hour incubation
Description: as §1, §2

[4] = test system: MDA-MB-231 breast cancer cell line; experiment: Cell viability assay (Cell Titer Glo), MDA-MB-231; assay type: cell-based; conditions: Homo sapiens, MDA-MB-231, 72 hour incubation
Description: as §1, §2

[5] = test system: MDA-MB436 cells; experiment: Cell viability assay (Cell Titer Glo), MDA-MB436; assay type: cell-based; conditions: Homo sapiens, MDA-MB-436; Table 7b; 72 hour incubation
Description: as §2, with “Cell Viability Assay Materials: • Cell Lines (Treated according to ATCC guidelines) • Cell Titer Glo (Promega Cat #G7572) • DMSO • 96-well White Tissue Culture Treated Plates (Perkin Elmer Cat #60005680) Method: Cells” for “Cells”, “μ[…]” for “μM, 10 μM, 3 μM, 1 μM, 0.3 μM . . . 0 μM. A”

[6] = test system: MDA-MB468 cells; experiment: Cell viability assay (Cell Titer Glo), MDA-MB468; assay type: cell-based; conditions: Homo sapiens, MDA-MB-468; Table 7b; 72 hour incubation
Description: as §2, with “Cell Viability Assay Materials: • Cell Lines (Treated according to ATCC guidelines) • Cell Titer Glo (Promega Cat #G7572) • DMSO • 96-well White Tissue Culture Treated Plates (Perkin Elmer Cat #60005680) Method: Cells” for “Cells”, “μ[…]” for “μM, 10 μM, 3 μM, 1 μM, 0.3 μM . . . 0 μM. A”

[7] = test system: Kasumi1 leukemia cancer cell line; experiment: Cell viability assay (Cell Titer Glo), Kasumi1; assay type: cell-based; conditions: Homo sapiens, Kasumi 1, Table 7a, 72 hour incubation
Description: as §1, §2

[8] = test system: A2780 ovarian cancer cell line; experiment: Cell viability assay (Cell Titer Glo), A2780; assay type: cell-based; conditions: Homo sapiens, A2780, Table 7a, 72 hour incubation
Description: as §1, §2

[9] = test system: A673 Ewingsarcoma cell line; experiment: Cell viability assay (Cell Titer Glo), A673; assay type: cell-based; conditions: Homo sapiens, A673, Table 7a, 72 hour incubation
Description: as §1, §2

[10] = Table 7a, pancreatic cancer cell line
[11] = Table 7a, breast cancer cell line

Chain of CDK7/CycH/MAT1 (P50613 whole entry): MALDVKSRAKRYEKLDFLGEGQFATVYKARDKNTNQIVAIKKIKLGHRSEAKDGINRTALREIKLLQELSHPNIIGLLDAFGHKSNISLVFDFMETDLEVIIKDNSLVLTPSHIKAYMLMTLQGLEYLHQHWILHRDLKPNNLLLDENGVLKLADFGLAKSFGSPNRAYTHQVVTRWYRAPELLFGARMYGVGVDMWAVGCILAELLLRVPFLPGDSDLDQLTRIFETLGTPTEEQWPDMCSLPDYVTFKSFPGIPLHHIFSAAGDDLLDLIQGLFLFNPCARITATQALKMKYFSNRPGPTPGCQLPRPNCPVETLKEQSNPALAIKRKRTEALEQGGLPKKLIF
Chain of CDK7/CycH/MAT1 (P51946 whole entry partner): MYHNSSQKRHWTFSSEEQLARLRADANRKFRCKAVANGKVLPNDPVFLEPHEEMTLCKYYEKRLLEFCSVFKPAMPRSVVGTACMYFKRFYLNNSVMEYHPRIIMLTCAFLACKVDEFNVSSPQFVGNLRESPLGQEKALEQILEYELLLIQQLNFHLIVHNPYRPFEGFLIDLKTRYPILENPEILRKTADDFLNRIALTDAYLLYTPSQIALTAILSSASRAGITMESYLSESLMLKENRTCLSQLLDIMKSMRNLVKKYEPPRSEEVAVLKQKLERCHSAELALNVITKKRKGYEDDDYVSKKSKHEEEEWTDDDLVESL
Chain of CDK7/CycH/MAT1 (P51948 whole entry partner): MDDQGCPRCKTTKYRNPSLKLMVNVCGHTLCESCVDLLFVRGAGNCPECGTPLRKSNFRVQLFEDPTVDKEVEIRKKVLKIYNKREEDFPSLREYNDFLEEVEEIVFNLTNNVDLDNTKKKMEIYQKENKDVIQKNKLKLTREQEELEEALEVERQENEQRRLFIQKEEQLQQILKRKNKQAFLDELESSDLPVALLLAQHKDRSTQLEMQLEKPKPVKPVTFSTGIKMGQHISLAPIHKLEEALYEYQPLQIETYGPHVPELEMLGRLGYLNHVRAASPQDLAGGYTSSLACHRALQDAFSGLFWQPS

With `Fc1cccc(Nc2cc(O[C@H]3CCCNC3)nn3c(C4CC4)cnc23)c1` [Compound I-1] the IC50 [1] was under 100 nM, the IC50 ([2]; Table 7b, read-out: IC50 MIA PaCa2) was under 1000 nM and the IC50 ([3]; Table 7b) was 1000 to 5000 nM. For the same compound, the IC50 ([4]; Table 7b, read-out: IC50 MDA-MB231) was 1000 to 5000 nM, the IC50 [5] was 1000 to 5000 nM and the IC50 [6] was 1000 to 5000 nM.
In the case of `CC(C)c1cnc2c(N[C@@H](C)c3ccccc3)nc(SC3CCNCC3)cn12` [Compound 32, (S)-3-isopropyl-N-(1-phenylethyl)-6-(piperidin-4-ylthio)imidazo[1,2-α]pyrazin-8-amine dihydrochloride], the IC50 [1] is reported as under 100 nM, the IC50 [2, 10] is reported as 1000 to 5000 nM and the IC50 [3, 10] is reported as 1000 to 5000 nM. It also gave an IC50 [7] of 1000 to 5000 nM, an IC50 [4, 11] of over 5000 nM and an IC50 [8] of 1000 to 5000 nM. The IC50 [9] was 1000 to 5000 nM.
For `CC(C)c1cnc2c(Nc3cccc(F)c3)cc(O[C@H]3CCCNC3)nn12` [Compound 39, (S)-N-(3-fluorophenyl)-3-isopropyl-6-(piperidin-3-yloxy)imidazo[1,2-b]pyridazin-8-amine hydrochloride], the IC50 [1] was under 100 nM, the IC50 [2, 10] was 1000 to 5000 nM and the IC50 [3, 10] was 1000 to 5000 nM. It also gave an IC50 [7] of 1000 to 5000 nM, an IC50 [4, 11] of 1000 to 5000 nM and an IC50 [8] of 1000 to 5000 nM. For the same compound, the IC50 [9] was 1000 to 5000 nM.
`COc1ccccc1CNc1cc(NC2CCNCC2)nn2c(C(C)C)cnc12` [Compound 40, 3-isopropyl-N8-(2-methoxybenzyl)-N6-(piperidin-4-yl)imidazo[1,2-b]pyridazine-6,8-diamine hydrochloride] was tested, and the IC50 [1] was under 100 nM, the IC50 [2, 10] was 1000 to 5000 nM and the IC50 [3, 10] was 1000 to 5000 nM. For the same compound, the IC50 [7] was over 5000 nM, the IC50 [4, 11] was 1000 to 5000 nM and the IC50 [8] was 1000 to 5000 nM. The IC50 [9] was 1000 to 5000 nM.
